Test results as given in ChEMBL document CHEMBL3885861, “Open TG-GATES”.

Organism: Rattus norvegicus
Experiment: Open TG-GATES - Regimen: Single
Assay type: toxicity, organism-based, Sprague-Dawley
Set-up: regimen Single, gender Male, age 6 weeks
Settings: in vivo, po, 0 mg/kg, route gavage, dose level Control; for APTT / Bas / Eos / Fbg / Hb / Ht / Lym / MCH / MCHC / MCV / Mono / Neu / PT / Plat / RBC / Ret / WBC: tissue Blood; for KIDNEY_L / KIDNEY_R / KIDNEY_TOTAL: tissue Kidney; for LIVER: tissue Liver

Oc1ncnc2[nH]ncc12 [ALLOPURINOL]
TERMINAL_BW (3 h): 209.8 g
APTT (3 h): 16.7 s
Bas (3 h): 0%
Eos (3 h): 0.8%
Fbg (3 h): 211 mg/dL
Hb (3 h): 14 g/dL
Ht (3 h): 41.7%
Lym (3 h): 73.2%
MCH (3 h): 21.9 pg
MCHC (3 h): 33.7%
MCV (3 h): 65.1 fL
Mono (3 h): 7.4%
Neu (3 h): 18.6%
PT (3 h): 12.3 s
Plat (3 h): 111.5 x10_4/uL
RBC (3 h): 641.2 x10_4/ul
Ret (3 h): 8.1%
WBC (3 h): 95.8 x10_2/uL
KIDNEY_L (3 h): 1 g
KIDNEY_R (3 h): 1 g
KIDNEY_TOTAL (3 h): 1.9 g
LIVER (3 h): 10.1 g
ALP (3 h, tissue Plasma): 925 IU/L
ALT (3 h, tissue Plasma): 30.8 IU/L
AST (3 h, tissue Plasma): 60 IU/L
BUN (3 h, tissue Plasma): 12 mg/dL
CRE (3 h, tissue Plasma): 0.5 mg/dL
Ca (3 h, tissue Plasma): 10.9 mg/dL
DBIL (3 h, tissue Plasma): 0.058 mg/dL
GLC (3 h, tissue Plasma): 189.4 mg/dL
K (3 h, tissue Plasma): 4.8 meq/L
LDH (3 h, tissue Plasma): 96.6 IU/L
Na (3 h, tissue Plasma): 139.2 meq/L
PL (3 h, tissue Plasma): 137.4 mg/dL
RALB (3 h, tissue Plasma): 3.7 g/dL
TBIL (3 h, tissue Plasma): 0.4 mg/dL
TC (3 h, tissue Plasma): 71.8 mg/dL
TG (3 h, tissue Plasma): 59.4 mg/dL
TP (3 h, tissue Plasma): 5.6 g/dL
gamma-GTP (3 h, tissue Plasma): 1.4 IU/L
TERMINAL_BW (6 h): 210 g
APTT (6 h): 16.3 s
Bas (6 h): 0%
Eos (6 h): 1%
Fbg (6 h): 212.6 mg/dL
Hb (6 h): 14.1 g/dL
Ht (6 h): 42%
Lym (6 h): 80%
MCH (6 h): 22.2 pg
MCHC (6 h): 33.4%
MCV (6 h): 66.3 fL
Mono (6 h): 5.6%
Neu (6 h): 13.6%
PT (6 h): 12.3 s
Plat (6 h): 111.5 x10_4/uL
RBC (6 h): 634 x10_4/ul
Ret (6 h): 8.2%
WBC (6 h): 98.8 x10_2/uL
KIDNEY_L (6 h): 0.9 g
KIDNEY_R (6 h): 0.9 g
KIDNEY_TOTAL (6 h): 1.8 g
LIVER (6 h): 9.5 g
ALP (6 h, tissue Plasma): 787 IU/L
ALT (6 h, tissue Plasma): 31.8 IU/L
AST (6 h, tissue Plasma): 62.2 IU/L
BUN (6 h, tissue Plasma): 11.2 mg/dL
CRE (6 h, tissue Plasma): 0.4 mg/dL
Ca (6 h, tissue Plasma): 11.1 mg/dL
DBIL (6 h, tissue Plasma): 0.032 mg/dL
GLC (6 h, tissue Plasma): 185.4 mg/dL
K (6 h, tissue Plasma): 5 meq/L
LDH (6 h, tissue Plasma): 96.6 IU/L
Na (6 h, tissue Plasma): 139 meq/L
PL (6 h, tissue Plasma): 132 mg/dL
RALB (6 h, tissue Plasma): 3.8 g/dL
TBIL (6 h, tissue Plasma): 0.3 mg/dL
TC (6 h, tissue Plasma): 71.8 mg/dL
TG (6 h, tissue Plasma): 54.4 mg/dL
TP (6 h, tissue Plasma): 5.6 g/dL
